From ChEMBL document CHEMBL3596185, “Combining Mass Spectrometric Metabolic Profiling with Genomic Analysis: A Powerful Approach for Discovering Natural Products from Cyanobacteria” (J Nat Prod, 2015)

Columns and labels:
Cannabinoid receptor 2 = Cannabinoid receptor 2 (Homo sapiens, UniProt P34972); test: Displacement of [3H]-CP55940 from human recombinant CB2 receptor expressed in HEK293 cells after 90 mins by scintillation counting analysis; format: cell-based
Homo sapiens = species: Homo sapiens; test: Selectivity ratio of Ki for human recombinant CB2 receptor to Ki for human recombinant CB1 receptor
Cannabinoid receptor 1 = Cannabinoid receptor 1 (Homo sapiens, UniProt P21554); test: Displacement of [3H]-CP55940 from human recombinant CB1 receptor expressed in HEK293 cells after 90 mins by scintillation counting analysis; format: cell-based
Sequence of Cannabinoid receptor 1 (P21554 whole entry): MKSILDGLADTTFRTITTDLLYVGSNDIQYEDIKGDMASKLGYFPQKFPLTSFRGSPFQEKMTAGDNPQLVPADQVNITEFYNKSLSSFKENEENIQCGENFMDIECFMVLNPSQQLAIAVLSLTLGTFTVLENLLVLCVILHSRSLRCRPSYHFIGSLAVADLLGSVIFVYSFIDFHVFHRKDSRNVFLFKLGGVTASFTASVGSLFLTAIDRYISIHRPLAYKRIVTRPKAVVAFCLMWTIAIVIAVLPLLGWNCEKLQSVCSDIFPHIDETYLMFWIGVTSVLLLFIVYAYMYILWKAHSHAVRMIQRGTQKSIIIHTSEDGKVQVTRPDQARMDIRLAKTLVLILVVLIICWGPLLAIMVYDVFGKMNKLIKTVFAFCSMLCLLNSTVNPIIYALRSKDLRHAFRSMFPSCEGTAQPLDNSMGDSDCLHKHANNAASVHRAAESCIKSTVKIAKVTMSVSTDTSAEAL

Sequence of Cannabinoid receptor 2 (P34972 whole entry): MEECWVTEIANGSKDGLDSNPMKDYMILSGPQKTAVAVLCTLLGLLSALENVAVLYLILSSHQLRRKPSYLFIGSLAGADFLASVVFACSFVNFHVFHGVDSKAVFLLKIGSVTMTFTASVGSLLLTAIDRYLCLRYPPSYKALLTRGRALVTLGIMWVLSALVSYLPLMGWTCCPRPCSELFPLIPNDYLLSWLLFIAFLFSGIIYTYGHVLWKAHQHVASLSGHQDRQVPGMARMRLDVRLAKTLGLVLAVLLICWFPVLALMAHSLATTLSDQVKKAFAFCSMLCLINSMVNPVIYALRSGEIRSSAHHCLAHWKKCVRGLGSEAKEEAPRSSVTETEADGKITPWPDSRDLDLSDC

SMILES | Ki (Cannabinoid receptor 2) | Ratio Ki (Homo sapiens) | Ki (Cannabinoid receptor 1)
COC[C@@H](COC(C)=O)N(C)C(=O)CC/C=C/CCCCC(Cl)CCCCCC(Cl)Cl (some centres not stated) | 860 nM | 2 | 410 nM
C=CCCC/C=C/C=C(\C)CCCC/C=C/CC/C=C\C(=O)NC(CO)CO | – | – | 470 nM
COC[C@@H](COC(C)=O)N(C)C(=O)CC/C=C/CCCCC(Cl)CCCCCCCl (some centres not stated) | 1030 nM | 2 | 590 nM
